The target in assay [1] is T1, PRMT5 (Homo sapiens, UniProt O14744).
T1 construct: purchased Viva (custom protein)
Briefly: PRMT5 biochemical IC50 assay with MTA as cofactor. The settings on record: PRMT5, MTA as cofactor; read-out: MTA IC50.

The subject of assay [2] is HAP1 MTAP-deleted cell line. Briefly: Viability assay, MTAP-deleted cell line. The class given is cell-based. The settings on record: Homo sapiens, read-out: HAP1 MTAP deleted viability. The source says: Table 1 additionally indicates IC50 values in a viability assay for the MTAP-deleted cell line (column 10), indicating the effect of treatment with compound on cell survival.

Assay [3] concerns the target T1, PRMT5. Briefly: PRMT5 biochemical IC50 assay with no cofactor. The settings on record: PRMT5, no cofactor. The source says:
Table 1 indicates IC50 values (μM) against PRMT5 for exemplary compounds in the presence of SAM as cofactor, with no cofactor, and with MTA as cofactor, respectively (columns 4-6). […] Ki values can be calculated from the IC50 values as described in the Examples section. As detailed in the Examples section, for the assay performed in the presence of SAM, IC50=Ki×1.5 (Ki=IC50/1.5).

In assay [4] the target is T1, PRMT5. Briefly: PRMT5 biochemical IC50 assay with SAM as cofactor. As to conditions: PRMT5, SAM as cofactor; read-out: SAM IC50.
Assay [5] concerns HAP1 MTAP-deleted cell line. Briefly: SDMA in-cell western assay, HAP1 MTAP-deleted. Type of assay: cell-based. The settings on record: for pIC50: Homo sapiens, HAP1, SDMA in-cell western, HAP1 MTAP-deleted; for MTAP intact/deleted ratio: IC50 ratio HAP1 MTAP-intact / HAP1 MTAP-deleted, SDMA in-cell western. An outline of the steps: (§1)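 Isogenic HAP1 pair: the MTAP-intact line expresses endogenous MTAP, and the deleted line is MTAP-null. Symmetric dimethylarginine was detected by in-cell western and IC50 values derived for each line.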

Assay [6] deals with HAP1 MTAP-intact cell line. Briefly: SDMA in-cell western assay, HAP1 MTAP-intact. The class given is cell-based. The settings on record: HAP1 MTAP-intact, read-out: MTAP HAP1 intact IC50. The method, boiled down:
as §1

The mark [7] stands for this setting: HAP1, viability, HAP1 MTAP-deleted cell line.
Setting [8] is: read-out: No Cofactor/ rel IC50.
[9] abbreviates: read-out: HAP 1 MTAP deleted IC50.
Where [10] appears, read: Homo sapiens, HAP1, SDMA in-cell western.
Where [11] appears, read: HAP1, viability assay, MTAP-deleted cell line.
Where [12] appears, read: read-out: HAP1 MTAP deleted IC50.
[13] abbreviates: HAP1, viability assay, HAP1 MTAP-deleted.
Setting [14] is: HAP1, viability IC50, MTAP-deleted cell line.

pIC50: −log10 of the molar value. Where two headings read alike, the source gives them in different places.

T1 sequence (O14744 whole entry): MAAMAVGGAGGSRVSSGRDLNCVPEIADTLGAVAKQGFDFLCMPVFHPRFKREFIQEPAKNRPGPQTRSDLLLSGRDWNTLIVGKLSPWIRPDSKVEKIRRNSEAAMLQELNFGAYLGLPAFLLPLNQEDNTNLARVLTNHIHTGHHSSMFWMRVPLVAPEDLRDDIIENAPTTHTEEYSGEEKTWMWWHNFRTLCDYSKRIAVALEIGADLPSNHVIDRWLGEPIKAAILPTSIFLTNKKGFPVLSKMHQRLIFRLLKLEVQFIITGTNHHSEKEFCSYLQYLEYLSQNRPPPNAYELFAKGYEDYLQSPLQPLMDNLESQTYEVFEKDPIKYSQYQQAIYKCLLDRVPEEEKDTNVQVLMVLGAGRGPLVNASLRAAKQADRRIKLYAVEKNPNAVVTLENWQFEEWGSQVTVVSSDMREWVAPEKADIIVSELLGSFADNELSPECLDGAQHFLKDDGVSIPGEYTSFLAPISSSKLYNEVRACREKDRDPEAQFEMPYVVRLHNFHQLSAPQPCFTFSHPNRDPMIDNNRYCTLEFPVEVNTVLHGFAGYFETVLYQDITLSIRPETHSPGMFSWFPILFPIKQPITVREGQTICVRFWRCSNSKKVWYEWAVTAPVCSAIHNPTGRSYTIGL
T1 sequence (Q9BQA1 whole entry partner): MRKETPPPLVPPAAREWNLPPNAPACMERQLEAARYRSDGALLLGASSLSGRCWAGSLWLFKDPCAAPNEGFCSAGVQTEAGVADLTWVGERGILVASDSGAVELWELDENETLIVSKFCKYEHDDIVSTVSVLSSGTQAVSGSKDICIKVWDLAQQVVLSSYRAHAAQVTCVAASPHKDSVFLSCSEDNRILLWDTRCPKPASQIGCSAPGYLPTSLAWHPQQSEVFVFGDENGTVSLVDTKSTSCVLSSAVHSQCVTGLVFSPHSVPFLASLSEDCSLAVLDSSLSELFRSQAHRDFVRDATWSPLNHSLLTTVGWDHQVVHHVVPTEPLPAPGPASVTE

Consider `CCc1cc(NC(=O)C(=O)N2C[C@@H](C)CC[C@@H]2c2ccc(N3CCN(CC)CC3)c(C)c2)cnc1N` (racemic) [Compound 1376, N-(6-Amino-5-ethyl-3-pyridyl)-2-oxo-2-[rac-(2R,5S)-2-[4-(4-ethylpiperazin-1-yl)-3-methyl-phenyl]-5-methyl-1-piperidyl]acetamide], for which the pIC50 in assay [1] is more than 7.30; in assay [2] (setting [7]), more than 6.00; in assay [3] (setting [8]) it was more than 7.30; in assay [4] it was 6.30 to 7.30; in assay [5] (setting [9]), more than 7.00; in assay [6] (setting [10]), 6.00 to 7.00. The “MTAP intact/deleted ratio” value in assay [5] is listed as “A (an IC50 ratio greater than or equal to 10 fold)”.
`Cc1cc(NC(=O)C(=O)N2C[C@H](C)CC[C@H]2c2ccc(N3CCN(C)CC3)cc2)cnc1N` (single isomer, unassigned) [Compound 1193]: the pIC50 in assay [1] is less than 6.30; in assay [2] (setting [11]), less than 5.00; in assay [3] (read-out: No Cofactor/rel IC50), less than 6.30; in assay [4], less than 6.30; in assay [5] (setting [12]) it was less than 6.00; in assay [6] (setting [10]) it was less than 6.00.
As for `CCc1cc(NC(=O)C(=O)N2C[C@@H](C)CC[C@@H]2c2cccc(C[C@H]3CCCCN3C)c2)cnc1N` (single isomer, unassigned) [Compound 1273], the pIC50 was more than 7.30 in assay [1]; more than 6.00 in assay [2] (setting [7]); more than 7.30 in assay [3] (setting [8]); 6.30 to 7.30 in assay [4]; more than 7.00 in assay [5] (setting [9]); 6.00 to 7.00 in assay [6] (setting [10]). Besides, in assay [5], the “MTAP intact/deleted ratio” value was “A (an IC50 ratio greater than or equal to 10 fold)”.
On to `COc1ncc(NC(=O)C(=O)N2C[C@H](C)CC[C@H]2c2ccc(-c3cncs3)cc2)cc1C(N)=O` (single isomer, unassigned) [Compound 830, 2-methoxy-5-(2-(5-methyl-2-(4-(thiazol-5-yl)phenyl)piperidin-1-yl)-2-oxoacetamido)nicotinamide], for which the pIC50 was more than 7.30 in assay [1]; more than 6.00 in assay [2] (setting [13]); 6.30 to 7.30 in assay [3] (read-out: No Cofactor/rel IC50); 6.30 to 7.30 in assay [4]; more than 7.00 in assay [5] (setting [12]); less than 6.00 in assay [6] (setting [10]). In addition, the MTAP intact/deleted ratio result in assay [5] was “A (an IC50 ratio greater than or equal to 10 fold)”.
Turning to `COc1ncc(NC(=O)C(=O)N2C[C@H](C)C(F)(F)C[C@H]2c2ccc(C)nc2)cc1C(N)=O` (single isomer, unassigned) [Compound 936], the pIC50 in assay [1] is less than 6.30; in assay [2] (setting [11]), less than 5.00; in assay [3] (read-out: No Cofactor/rel IC50), less than 6.30; in assay [4] it was less than 6.30; in assay [5] (setting [9]), less than 6.00; in assay [6] (setting [10]), less than 6.00. Moreover, in assay [5], the MTAP intact/deleted ratio entry was “C (an IC50 ratio of less than 3 fold)”.
Regarding `C[C@@H]1CN(C(=O)C(=O)Nc2cncc(C(N)=O)c2)C[C@H]2CCCC[C@@H]21` (racemic) [Compound 543, 5-[[2-[(4S,4aR,8aS)-4-Methyl-3,4,4a,5,6,7,8,8a-octahydro-1H-isoquinolin-2-yl]-2-oxo-acetyl]amino]pyridine-3-carboxamide], the pIC50 in assay [1] was 6.30 to 7.30; in assay [2] (setting [14]) it was 5.00 to 6.00; in assay [3] (read-out: No Cofactor/rel IC50) it was 6.30 to 7.30; in assay [4], 6.30 to 7.30; in assay [5] (setting [9]), 6.00 to 7.00; in assay [6] (setting [10]), less than 6.00. The MTAP intact/deleted ratio result in assay [5] is recorded as “A (an IC50 ratio greater than or equal to 10 fold)”.
For `COc1cc([C@@H]2CC[C@@H](C)CN2C(=O)C(=O)Nc2cnc(N)c(C)c2)ccn1` (single isomer, unassigned) [Compound 545], the pIC50 in assay [1] is more than 7.30; in assay [2] (setting [14]), more than 6.00; in assay [3] (read-out: No Cofactor/rel IC50), more than 7.30; in assay [4], 6.30 to 7.30; in assay [5] (setting [9]) it was more than 7.00; in assay [6] (setting [10]) it was 6.00 to 7.00. The MTAP intact/deleted ratio result in assay [5] is “B (an IC50 ratio greater than or equal to 3 fold but lower than 10 fold)”.
As to `C[C@@H]1CC[C@@H](c2ccc(F)cc2)N(C(=O)C(=O)Nc2cnc(OC(F)(F)F)c(C(N)=O)c2)C1` (racemic) [Compound 818, rac 5-[[2-[(2R,5S)-2-(4-fluorophenyl)-5-methyl-1-piperidyl]-2-oxo-acetyl]amino]-2-(trifluoromethoxy)pyridine-3-carboxamide], the pIC50 in assay [1] is 6.30 to 7.30; in assay [2] (setting [13]), less than 5.00; in assay [3] (read-out: No Cofactor/rel IC50), 6.30 to 7.30; in assay [4] it was 6.30 to 7.30; in assay [5] (setting [12]) it was 6.00 to 7.00; in assay [6] (setting [10]) it was less than 6.00. Further, in assay [5], the MTAP intact/deleted ratio entry is given as “A (an IC50 ratio greater than or equal to 10 fold)”.
For `C[C@@H]1CC[C@@H](c2cc3[nH]ncc3s2)N(C(=O)C(=O)Nc2cncc(C(N)=O)c2)C1` (single isomer, unassigned) [Compound 868, 5-(2-(5-methyl-2-(1H-thieno[3,2-c]pyrazol-5-yl)piperidin-1-yl)-2-oxoacetamido)nicotinamide], the pIC50 is less than 6.30 in assay [1]; less than 5.00 in assay [2] (setting [13]); less than 6.30 in assay [3] (read-out: No Cofactor/rel IC50); less than 6.30 in assay [4]; less than 6.00 in assay [5] (setting [12]); less than 6.00 in assay [6] (setting [10]). Besides, the MTAP intact/deleted ratio result in assay [5] is on record as “C (an IC50 ratio of less than 3 fold)”.
With `CCc1cc(NC(=O)C(=O)N2C[C@@H](C)CC[C@@H]2c2ccc3sc([C@H]4CN(C)CCO4)nc3c2)cnc1N` [Compound 1275, N-(6-amino-5-ethylpyridin-3-yl)-2-((2R,5S)-5-methyl-2-(2-(4-methylmorpholin-2-yl)benzo[d]thiazol-5-yl)piperidin-1-yl)-2-oxoacetamide], the pIC50 in assay [1] is more than 7.30; in assay [2] (setting [7]), more than 6.00; in assay [3] (setting [8]) it was more than 7.30; in assay [4] it was 6.30 to 7.30; in assay [5] (setting [9]) it was more than 7.00; in assay [6] (SDMA in-cell western) it was 6.00 to 7.00. The “MTAP intact/deleted ratio” value in assay [5] is recorded as “A (an IC50 ratio greater than or equal to 10 fold)”.
In the case of `C[C@@H]1CC[C@@H](c2ccc(O)nc2)N(C(=O)C(=O)Nc2cncc(C(N)=O)c2)C1` (single isomer, unassigned) [Compound 351], the pIC50 in assay [1] was less than 6.30; in assay [2] (setting [11]), less than 5.00; in assay [3] (read-out: No Cofactor/rel IC50) it was less than 6.30; in assay [4] it was less than 6.30; in assay [5] (setting [12]), less than 6.00; in assay [6] (setting [10]), less than 6.00. Also, in assay [5], the MTAP intact/deleted ratio entry is recorded as “C (an IC50 ratio of less than 3 fold)”.
As to `CCc1cc(NC(=O)C(=O)N2C[C@@H](C)CC[C@@H]2c2ccc3sc(NC)nc3c2)cnc1N` (single isomer, unassigned) [Compound 884], the pIC50 in assay [1] is more than 7.30; in assay [2] (setting [11]), more than 6.00; in assay [3] (read-out: No Cofactor/rel IC50), more than 7.30; in assay [4], 6.30 to 7.30; in assay [5] (setting [9]), more than 7.00; in assay [6] (setting [10]), 6.00 to 7.00. Also, the MTAP intact/deleted ratio result in assay [5] is listed as “A (an IC50 ratio greater than or equal to 10 fold)”.
Turning to `Cc1cc(NC(=O)C(=O)N2C[C@H](C)CC[C@H]2c2ccc(C(N)=O)s2)cnc1N` (racemic) [Compound 644, 5-[(2S,5R)-1-[2-[(6-amino-5-methyl-3-pyridyl)amino]-2-oxo-acetyl]-5-methyl-2-piperidyl]thiophene-2-carboxamide], the pIC50 was 6.30 to 7.30 in assay [1]; more than 6.00 in assay [2] (setting [14]); 6.30 to 7.30 in assay [3] (read-out: No Cofactor/rel IC50); 6.30 to 7.30 in assay [4]; more than 7.00 in assay [5] (setting [9]); 6.00 to 7.00 in assay [6] (setting [10]). For the same compound, the MTAP intact/deleted ratio entry in assay [5] is recorded as “A (an IC50 ratio greater than or equal to 10 fold)”.

Source of the values: US11999727B2 (Tango Therapeutics, Inc., priority 2020, dated 2024).
